Laboratory results reported in patent US9907847B2, “Pyrrolopyrimidines as therapeutic agents for the treatment of diseases” (GlaxoSmithKline LLC, priority 2012, dated 2018).
Structures can show the parent of a compound that is named as a salt.

Columns and labels:
[1] = test system: TNF-α; assay: Induction of TNF-α using fresh human whole blood (WB); type: cell-based; conditions: three donors, overnight incubation, response as % of 2 μM resiquimod control, read-out: mean pEC50 for TNF-α (converted)
Protocol: (§1) Assay for the Induction of Interferon-[…] and TNF-[…] Using Fresh Human Whole Blood (WB)
(§2) Compounds were prepared at 100× required concentration in DMSO in flat-bottom microtitre plates at a volume of 1.5 μL. Columns 1-10 contained a 1 in 4 serial dilution of the test compound. Included on each plate was a serial dilution of the TLR7/8 agonist resiquimod as a standard and Column 11 contained 1.5 μl of 200 μM resiquimod (giving a 2 μM final concentration, used to define the approximate maximal response to resiquimod). Each compound was assayed in duplicate for each donor.
(§3) Blood samples from three human donors were collected into sodium heparin (10 U/ml). 150 μl of whole Blood was dispensed into Col 1 to 11 of assay plates containing 1.5 μl of test compound or standard in DMSO. Plates were placed in an incubator overnight (37° C., 95% air, 5% CO2). Following the overnight incubation, plates were removed from the incubator & mixed on an orbital shaker for approximately 1 minute. 100 μl of 0.9% saline was added to each well and the plates mixed again on an orbital shaker. Plates were then centrifuged (2500 rpm, 10 mins), after which a sample of plasma was removed using a Biomek FX and assayed for both IFN-α and TNF-α using the MSD (Mesoscale Discovery) electrochemiluminescence assay platform. The IFN-α assay was carried out similarly to that described above. The TNF-α assay was carried out as per kit instructions (Cat No K111BHB).
(§4) Cytokine released was expressed as a percentage of the 2 μM resiquimod control (column 11). This percentage was plotted against compound concentration and the pEC50 for the response determined by non-linear least squares curve fitting. For the IFN-α responses, generally a 4 parameter logistic model was selected. For the TNF-α responses where a clear maximum response was obtained (i.e. a well defined plateau in the response was observed) then a 4 parameter model was generally used. If the upper asymptote of the curve wasn't well defined then the curve fitting was generally constrained to a maximal response of 100% (i.e. to the response to 2 μM resiquimod) or to the response of the highest concentration tested if this was greater than the resiquimod response. Some curves were bell shaped for one or both cytokines and the cytokine data on the down slope of the bell shaped response (i.e. concentrations above those giving the maximal response) were generally excluded from the fit, usually with the exception of the concentration immediately above the peak response. Curve fitting thus concentrated on the up slope of the dose response curve.

[2] = test system: IFN-α; assay: Induction of interferon-α using fresh human whole blood (WB); type: cell-based; conditions: three donors, overnight incubation, response as % of 2 μM resiquimod control, read-out: mean pEC50 for IFN-α (converted)
Protocol: as §1, §2, §3, §4

Row | Compound | EC50 [1] [µM] | EC50 [2] [µM]
1 | CCCCc1nc(N)c2[nH]cc(CCCCCN3CCCC3)c2n1 [Example 9, 2-Butyl-7-(5-(pyrrolidin-1-yl)pentyl)-5H-pyrrolo[3,2-d]pyrimidin-4-amine formate] | ≥ 5.01 | ≤ 5.01
2 | CCCCc1nc(N)c2[nH]cc(CCCCCN3CCC[C@H]3C)c2n1 [Example 35, (R)-2-Butyl-7-(5-(2-methylpyrrolidin-1-yl)pentyl)-5H-pyrrolo[3,2-d]pyrimidin-4-amine] | ≥ 5.01 | ≤ 5.01
3 | CCCCc1nc(N)c2[nH]cc(CCCCCN3CCC(F)CC3)c2n1 [Example 21, 2-Butyl-7-(5-(4-fluoropiperidin-1-yl)pentyl)-5H-pyrrolo[3,2-d]pyrimidin-4-amine] | ≥ 5.01 | ≤ 5.01
4 | CCCCc1nc(N)c2[nH]cc(CCCCN3CCCCC3)c2n1 [Example 3, 2-Butyl-7-(4-(piperidin-1-yl)butyl)-5H-pyrrolo[3,2-d]pyrimidin-4-amine] | ≥ 5.01 | ≤ 5.01
5 | CCOCc1nc(N)c2[nH]cc(CCCCCCN3CCCCC3)c2n1 [Example 4, 2-(Ethoxymethyl)-7-(6-(piperidin-1-yl)hexyl)-5H-pyrrolo[3,2-d]pyrimidin-4-amine] | ≥ 5.01 | ≤ 5.01
6 | CCCCc1nc(N)c2[nH]c(C)c(CCCCCCN3CCCCC3)c2n1 [Example 6, 2-Butyl-6-methyl-7-(6-(piperidin-1-yl)hexyl)-5H-pyrrolo[3,2-d]pyrimidin-4-amine] | ≥ 5.01 | ≤ 5.01
7 | CCCCc1nc(N)c2[nH]c(C)c(CCCCN3CCCCC3)c2n1 [Example 8, 2-Butyl-6-methyl-7-(4-(piperidin-1-yl)butyl)-5H-pyrrolo[3,2-d]pyrimidin-4-amine] | ≥ 5.01 | ≤ 5.01
8 | CCCCc1nc(N)c2[nH]cc(CCCCCN3CCC[C@@H]3C)c2n1 [Example 34, (S)-2-Butyl-7-(5-(2-methylpyrrolidin-1-yl)pentyl)-5H-pyrrolo[3,2-d]pyrimidin-4-amine] | ≥ 5.01 | ≤ 5.01
9 | CCCCc1nc(N)c2[nH]cc(CCCCCN3CCCCC3)c2n1 [Example 2, 2-Butyl-7-(5-(piperidin-1-yl)pentyl)-5H-pyrrolo[3,2-d]pyrimidin-4-amine] | ≥ 5.01 | ≤ 5.01
10 | CCCCc1nc(N)c2[nH]cc(CCCCCCN3CCCCC3)c2n1 [Example 1, 2-Butyl-7-(6-(piperidin-1-yl)hexyl)-5H-pyrrolo[3,2-d]pyrimidin-4-amine formate] | ≥ 5.01 | ≤ 5.01
11 | CCCCc1nc(N)c2[nH]c(C)c(CCCCCN3CCCCC3)c2n1 [Example 7, 2-Butyl-6-methyl-7-(5-(piperidin-1-yl)pentyl)-5H-pyrrolo[3,2-d]pyrimidin-4-amine] | ≥ 5.01 | ≤ 5.01
12 | CCCCc1nc(N)c2[nH]cc(CCCCCN3CCCCCC3)c2n1 [Example 12, 7-(5-(Azepan-1-yl)pentyl)-2-butyl-5H-pyrrolo[3,2-d]pyrimidin-4-amine] | ≥ 5.01 | ≤ 5.01
13 | COCCc1nc(N)c2[nH]cc(CCCCCCN3CCCCCC3)c2n1 [Example 30, 7-(6-(Azepan-1-yl)hexyl)-2-(2-methoxyethyl)-5H-pyrrolo[3,2-d]pyrimidin-4-amine] | ≥ 5.01 | ≤ 5.01
14 | CCCCCc1nc(N)c2[nH]cc(CCCCCCN3CCCCC3)c2n1 [Example 11, 2-Pentyl-7-(6-(piperidin-1-yl)hexyl)-5H-pyrrolo[3,2-d]pyrimidin-4-amine] | ≥ 5.01 | ≤ 5.01
15 | CCCCc1nc(N)c2[nH]cc(CCCCCN3CC(F)C3)c2n1 [Example 37, 2-Butyl-7-(5-(3-fluoroazetidin-1-yl)pentyl)-5H-pyrrolo[3,2-d]pyrimidin-4-amine] | ≥ 5.01 | ≤ 5.01
16 | CCCCc1nc(N)c2[nH]cc(CCCCCN3CCC3)c2n1 [Example 17, 7-(5-(Azetidin-1-yl)pentyl)-2-butyl-5H-pyrrolo[3,2-d]pyrimidin-4-amine] | ≥ 5.01 | ≤ 5.01
17 | CCCCc1nc(N)c2[nH]cc(CCCCCCN3CCCC3)c2n1 [Example 10, 2-Butyl-7-(6-(pyrrolidin-1-yl)hexyl)-5H-pyrrolo[3,2-d]pyrimidin-4-amine] | ≥ 5.01 | ≤ 5.01

Row | Compound | EC50 [1] [µM] | EC50 [2] [µM]
18 | CCCCc1nc(N)c2[nH]c(C)c(CCCCCCN3CCC3)c2n1 [Example 15, 7-(6-(Azetidin-1-yl)hexyl)-2-butyl-6-methyl-5H-pyrrolo[3,2-d]pyrimidin-4-amine] | ≥ 5.01 | ≤ 5.01
19 | CCCCc1nc(N)c2[nH]cc(CCCCCN3CC[C@H](F)C3)c2n1 [Example 25, (S)-2-Butyl-7-(5-(3-fluoropyrrolidin-1-yl)pentyl)-5H-pyrrolo[3,2-d]pyrimidin-4-amine] | ≥ 5.01 | ≤ 5.01
20 | CCCCc1nc(N)c2[nH]cc(CCCCCCN3CC[C@@H](F)C3)c2n1 [Example 32, (R)-2-Butyl-7-(6-(3-fluoropyrrolidin-1-yl)hexyl)-5H-pyrrolo[3,2-d]pyrimidin-4-amine] | ≥ 5.01 | ≤ 5.01
21 | CCCCc1nc(N)c2[nH]c(C)c(CCCCCCN3CCCC3)c2n1 [Example 14, 2-Butyl-6-methyl-7-(6-(pyrrolidin-1-yl)hexyl)-5H-pyrrolo[3,2-d]pyrimidin-4-amine] | ≥ 5.01 | ≤ 5.01
22 | CCCCc1nc(N)c2[nH]cc(CCCCCN3CC(O)C3)c2n1 [Example 29, 1-(5-(4-Amino-2-butyl-5H-pyrrolo[3,2-d]pyrimidin-7-yl)pentyl)azetidin-3-ol formate] | ≥ 5.01 | ≤ 5.01
23 | CCCCc1nc(N)c2[nH]c(C)c(CCCCCN3CCC3)c2n1 [Example 18, 7-(5-(Azetidin-1-yl)pentyl)-2-butyl-6-methyl-5H-pyrrolo[3,2-d]pyrimidin-4-amine] | ≥ 5.01 | ≤ 5.01
24 | CCCCc1nc(N)c2[nH]c(C)c(CCCCN3CCCC3)c2n1 [Example 19, 2-Butyl-6-methyl-7-(4-(pyrrolidin-1-yl)butyl)-5H-pyrrolo[3,2-d]pyrimidin-4-amine] | ≥ 5.01 | ≤ 5.01
25 | CCCCc1nc(N)c2[nH]cc(CCCCCN3CC(C)C3)c2n1 [Example 36, 2-Butyl-7-(5-(3-methylazetidin-1-yl)pentyl)-5H-pyrrolo[3,2-d]pyrimidin-4-amine] | ≥ 5.01 | ≤ 5.01
26 | COCCc1nc(N)c2[nH]cc(CCCCCN3CCC(F)CC3)c2n1 [Example 22, 7-(5-(4-Fluoropiperidin-1-yl)pentyl)-2-(2-methoxyethyl)-5H-pyrrolo[3,2-d]pyrimidin-4-amine] | ≥ 5.01 | ≤ 5.01
27 | COCCc1nc(N)c2[nH]cc(CCCCCCN3CCCCC3)c2n1 [Example 5, 2-(2-Methoxyethyl)-7-(6-(piperidin-1-yl)hexyl)-5H-pyrrolo[3,2-d]pyrimidin-4-amine hydrochloride] | ≥ 5.01 | ≤ 5.01
28 | CCCCc1nc(N)c2[nH]c(C)c(CCCCCN3CC(F)C3)c2n1 [Example 42, 2-Butyl-7-(5-(3-fluoroazetidin-1-yl)pentyl)-6-methyl-5H-pyrrolo[3,2-d]pyrimidin-4-amine] | ≥ 5.01 | ≤ 5.01
29 | CCCCc1nc(N)c2[nH]cc(CCCCCN3CCC(F)(F)CC3)c2n1 [Example 20, 2-Butyl-7-(5-(4,4-difluoropiperidin-1-yl)pentyl)-5H-pyrrolo[3,2-d]pyrimidin-4-amine] | ≥ 5.01 | ≤ 5.01
30 | CCCCc1nc(N)c2[nH]c(C)c(CCCCCN3CCCC3)c2n1 [Example 16, 2-Butyl-6-methyl-7-(5-(pyrrolidin-1-yl)pentyl)-5H-pyrrolo[3,2-d]pyrimidin-4-amine] | ≥ 5.01 | ≤ 5.01
31 | CCCCc1nc(N)c2[nH]cc(CCCCCN3CC[C@@H](F)C3)c2n1 [Example 24, (R)-2-Butyl-7-(5-(3-fluoropyrrolidin-1-yl)pentyl)-5H-pyrrolo[3,2-d]pyrimidin-4-amine] | ≥ 5.01 | ≤ 5.01
32 | CCCCc1nc(N)c2[nH]c(C)c(CCCCCN3CCC(F)CC3)c2n1 [Example 39, 2-Butyl-7-(5-(4-fluoropiperidin-1-yl)pentyl)-6-methyl-5H-pyrrolo[3,2-d]pyrimidin-4-amine] | ≥ 5.01 | ≤ 5.01
33 | CCCCc1nc(N)c2[nH]cc(CCCCCN3CCC(O)CC3)c2n1 [Example 23, 1-(5-(4-Amino-2-butyl-5H-pyrrolo[3,2-d]pyrimidin-7-yl)pentyl)piperidin-4-ol] | ≥ 5.01 | ≤ 5.01
34 | CCCCc1nc(N)c2[nH]c(C)c(CCCCN3CCCCCC3)c2n1 [Example 13, 7-(4-(Azepan-1-yl)butyl)-2-butyl-6-methyl-5H-pyrrolo[3,2-d]pyrimidin-4-amine] | ≥ 5.01 | ≤ 5.01
